# According to ChEMBL document CHEMBL1201862, “PubChem BioAssay data set” (2004):
# Several values for one entry are separate records, joined by “and”; a condition that tells them apart may be missing. Identical values can stand only once. Activity calls are given as the source filed them.
# Columns and labels:
# [1] = molecular target: G-protein coupled receptor 55 (Homo sapiens, UniProt Q9Y2T6); experiment: selective activators of receptor GPR55 – imaging, U2OS cells, beta-arrestin-GFP redistribution, primary screen (AID 1961); format: functional
# [2] = molecular target: Neurotensin receptor type 1 (Homo sapiens, UniProt P30989); format: functional;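 note: Image-based confirmatory dose-response assay measuring agonist activity at NTR1; NTR1-expressing U2OS osteosarcoma cells imaged for beta-arrestin GFP spot formation; agonist potency where compounds increase beta-arrestin recruitment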
# [3] = molecular target: T1, Dual specificity protein phosphatase 3 (Homo sapiens, UniProt P51452); experiment: SAR VHR1 Fluorescent Assay for In Vitro dose response studies. [Related pubchem assays (depositor defined):AID1654, AID1661, AID1878, AID1992, AID2004, AID2070, AID2085]; format: functional
# [4] = molecular target: T1, Dual specificity protein phosphatase 3; experiment: VHR1 phosphatase inhibitors, biochemical (AID 1878)
# [5] = molecular target: T1, Dual specificity protein phosphatase 3; experiment: SAR VHR1 absorbance Assay for In Vitro dose response studies. [Related pubchem assays (depositor defined):AID1654, AID1661, AID1878, AID1992, AID2004]
# [6] = molecular target: Tyrosine-protein phosphatase non-receptor type 5 (Homo sapiens, UniProt P54829); experiment: PTPN5 enzyme inhibition – biochemical, fluorescence intensity, uHTS hits, confirmation (AID 602372); format: functional; conditions: read-out: IC50_Mean
# [7] = molecular target: T1, Dual specificity protein phosphatase 3; experiment: VHR phosphatase inhibition, dose response, selectivity assay for STEP inhibitor project, biochemical (AID 602374); format: functional; conditions: read-out: IC50_Mean
# [8] = molecular target: T2, Polyadenylate-binding protein 1 (Homo sapiens, UniProt P11940); experiment: MLLE domain peptide-binding blockers, IC50 – biochemical, fluorescence polarization, FITC-PAM2 peptide, dose response (AID 602259); format: functional; conditions: read-out: IC50_Mean
# [9] = molecular target: T1, Dual specificity protein phosphatase 3; experiment: VHR1 phosphatase inhibitors, primary screen, biochemical, absorbance, uHTS (AID 1654)
# [10] = molecular target: T3, Tyrosine-protein phosphatase non-receptor type 7 (Homo sapiens, UniProt P35236); experiment: redox-active compounds inhibiting HePTP phosphatase – biochemical, fluorescence, mechanism study (AID 2068); format: functional
# T3 sequence (P35236 whole entry): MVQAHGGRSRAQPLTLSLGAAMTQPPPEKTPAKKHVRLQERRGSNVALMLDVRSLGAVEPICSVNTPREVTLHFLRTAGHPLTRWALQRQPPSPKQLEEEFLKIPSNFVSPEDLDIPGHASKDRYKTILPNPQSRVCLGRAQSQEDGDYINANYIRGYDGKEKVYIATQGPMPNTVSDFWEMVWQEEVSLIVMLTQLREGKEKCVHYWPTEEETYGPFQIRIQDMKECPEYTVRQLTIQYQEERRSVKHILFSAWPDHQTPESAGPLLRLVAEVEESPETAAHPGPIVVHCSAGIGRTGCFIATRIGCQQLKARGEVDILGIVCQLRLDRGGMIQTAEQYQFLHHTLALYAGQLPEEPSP
# [11] = molecular target: T2, Polyadenylate-binding protein 1; experiment: MLLE binding blockers, Cy5 peptide tracer – biochemical, fluorescence polarization, Cy5-PAM2 peptide, secondary, miRNA deadenylation inhibitor project, dose response (AID 602260); format: functional; conditions: read-out: IC50_Mean
# [12] = molecular target: T1, Dual specificity protein phosphatase 3; experiment: MOA VHR1 Fluorescent secondary assay for identification of redox-state modulating compounds. [Related pubchem assays (depositor defined):AID1654, AID1661, AID1878, AID1957]
# [13] = molecular target: T4, Dual specificity protein phosphatase 6 (Rattus norvegicus, UniProt Q64346); format: functional;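 note: confirmatory in vitro dose-response testing of MKP-3 inhibition; recombinant His-tagged MKP-3 made in E. coli BL21 with OMFP substrate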
# T4 sequence (Q64346 whole entry): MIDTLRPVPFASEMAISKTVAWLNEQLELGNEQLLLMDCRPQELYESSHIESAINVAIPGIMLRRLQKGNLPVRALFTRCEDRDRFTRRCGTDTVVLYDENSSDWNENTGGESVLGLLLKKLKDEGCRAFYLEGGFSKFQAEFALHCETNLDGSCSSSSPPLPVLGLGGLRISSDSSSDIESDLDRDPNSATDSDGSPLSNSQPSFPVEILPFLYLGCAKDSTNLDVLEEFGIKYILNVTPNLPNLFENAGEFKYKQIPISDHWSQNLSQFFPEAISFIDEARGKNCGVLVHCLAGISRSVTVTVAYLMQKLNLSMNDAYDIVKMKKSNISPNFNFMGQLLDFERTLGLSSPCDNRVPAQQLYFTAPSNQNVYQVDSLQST
# [14] = molecular target: T4, Dual specificity protein phosphatase 6; experiment: inhibition of rat DUSP6 enzyme activity – biochemical, in vitro, primary screen (AID 425)
# [15] = molecular target: Tyrosine-protein phosphatase non-receptor type 11 (Homo sapiens, UniProt Q06124); experiment: PTPN11 enzyme inhibitors – biochemical, selectivity assay for STEP inhibitor project, dose response (AID 602367); format: functional; conditions: read-out: IC50_Mean
# [16] = molecular target: T5, Ubiquitin-conjugating enzyme E2 N (Homo sapiens, UniProt P61088); format: functional;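 note: Dose-response confirmation in a TR-FRET assay detecting UBC13-driven polyubiquitin chain formation, inhibition measured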
# T5 sequence (P61088 whole entry): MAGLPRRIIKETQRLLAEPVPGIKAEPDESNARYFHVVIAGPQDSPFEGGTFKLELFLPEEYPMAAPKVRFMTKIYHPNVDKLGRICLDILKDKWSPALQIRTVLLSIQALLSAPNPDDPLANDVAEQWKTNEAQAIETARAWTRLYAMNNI
# [17] = Cytotoxicity screening for potential Inhibitors of Bacterial Capsule Biogenesis. [Related pubchem assays (depositor defined):AID488970]; format: functional
# T1 sequence (P51452 whole entry): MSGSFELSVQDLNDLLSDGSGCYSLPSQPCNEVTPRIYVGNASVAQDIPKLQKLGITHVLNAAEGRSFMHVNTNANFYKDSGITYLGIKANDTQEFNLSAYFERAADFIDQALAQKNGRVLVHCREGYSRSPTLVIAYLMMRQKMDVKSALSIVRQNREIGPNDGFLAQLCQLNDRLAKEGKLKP
# T2 sequence (P11940 whole entry, the tested form may be a part): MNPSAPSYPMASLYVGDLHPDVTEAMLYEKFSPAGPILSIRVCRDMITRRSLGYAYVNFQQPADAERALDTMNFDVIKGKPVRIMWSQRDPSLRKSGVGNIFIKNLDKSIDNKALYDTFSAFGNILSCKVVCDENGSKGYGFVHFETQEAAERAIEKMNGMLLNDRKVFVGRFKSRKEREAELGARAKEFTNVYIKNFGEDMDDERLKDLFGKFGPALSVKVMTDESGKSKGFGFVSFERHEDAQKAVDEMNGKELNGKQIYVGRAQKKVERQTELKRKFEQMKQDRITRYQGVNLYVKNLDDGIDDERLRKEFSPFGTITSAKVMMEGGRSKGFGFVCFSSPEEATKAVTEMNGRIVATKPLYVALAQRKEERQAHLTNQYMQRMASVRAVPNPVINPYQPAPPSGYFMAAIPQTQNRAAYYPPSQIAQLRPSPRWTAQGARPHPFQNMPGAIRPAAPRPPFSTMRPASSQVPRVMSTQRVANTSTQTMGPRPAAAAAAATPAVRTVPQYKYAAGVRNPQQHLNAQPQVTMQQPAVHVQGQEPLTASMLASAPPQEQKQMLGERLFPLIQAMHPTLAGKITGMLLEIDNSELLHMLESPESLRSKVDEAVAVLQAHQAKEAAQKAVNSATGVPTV
# Sequence of Tyrosine-protein phosphatase non-receptor type 5 (P54829 whole entry): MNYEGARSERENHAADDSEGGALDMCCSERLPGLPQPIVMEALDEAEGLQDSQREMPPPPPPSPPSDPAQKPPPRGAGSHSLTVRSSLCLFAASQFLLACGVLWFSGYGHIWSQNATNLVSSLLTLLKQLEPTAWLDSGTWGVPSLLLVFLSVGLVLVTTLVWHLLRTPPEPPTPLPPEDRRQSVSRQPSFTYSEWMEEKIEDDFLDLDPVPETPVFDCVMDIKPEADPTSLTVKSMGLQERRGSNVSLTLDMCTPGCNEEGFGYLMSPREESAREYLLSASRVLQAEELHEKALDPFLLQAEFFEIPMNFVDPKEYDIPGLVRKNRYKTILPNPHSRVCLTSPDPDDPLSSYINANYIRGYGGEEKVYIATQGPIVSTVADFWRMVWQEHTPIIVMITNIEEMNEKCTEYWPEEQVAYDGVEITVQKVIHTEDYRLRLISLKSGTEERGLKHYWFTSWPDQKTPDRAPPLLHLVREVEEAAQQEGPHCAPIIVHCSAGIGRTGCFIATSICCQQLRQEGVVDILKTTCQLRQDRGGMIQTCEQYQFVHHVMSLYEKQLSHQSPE
# Sequence of Tyrosine-protein phosphatase non-receptor type 11 (Q06124 whole entry): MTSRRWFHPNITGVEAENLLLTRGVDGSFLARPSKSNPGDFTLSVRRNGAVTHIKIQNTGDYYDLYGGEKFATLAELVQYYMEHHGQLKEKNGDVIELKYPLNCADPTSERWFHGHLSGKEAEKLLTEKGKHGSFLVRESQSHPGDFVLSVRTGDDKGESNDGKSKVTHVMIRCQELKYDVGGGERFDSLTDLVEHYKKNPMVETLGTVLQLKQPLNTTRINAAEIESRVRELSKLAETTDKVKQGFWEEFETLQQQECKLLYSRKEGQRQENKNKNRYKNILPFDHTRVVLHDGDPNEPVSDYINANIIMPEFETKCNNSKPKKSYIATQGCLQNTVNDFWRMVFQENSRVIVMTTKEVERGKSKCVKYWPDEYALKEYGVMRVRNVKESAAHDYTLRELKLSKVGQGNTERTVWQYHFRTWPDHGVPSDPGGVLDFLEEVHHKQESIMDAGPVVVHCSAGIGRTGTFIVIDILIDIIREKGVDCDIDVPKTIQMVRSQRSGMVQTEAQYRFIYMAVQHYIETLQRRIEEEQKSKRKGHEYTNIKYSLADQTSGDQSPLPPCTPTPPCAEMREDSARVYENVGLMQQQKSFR
# Sequence of Neurotensin receptor type 1 (P30989 whole entry): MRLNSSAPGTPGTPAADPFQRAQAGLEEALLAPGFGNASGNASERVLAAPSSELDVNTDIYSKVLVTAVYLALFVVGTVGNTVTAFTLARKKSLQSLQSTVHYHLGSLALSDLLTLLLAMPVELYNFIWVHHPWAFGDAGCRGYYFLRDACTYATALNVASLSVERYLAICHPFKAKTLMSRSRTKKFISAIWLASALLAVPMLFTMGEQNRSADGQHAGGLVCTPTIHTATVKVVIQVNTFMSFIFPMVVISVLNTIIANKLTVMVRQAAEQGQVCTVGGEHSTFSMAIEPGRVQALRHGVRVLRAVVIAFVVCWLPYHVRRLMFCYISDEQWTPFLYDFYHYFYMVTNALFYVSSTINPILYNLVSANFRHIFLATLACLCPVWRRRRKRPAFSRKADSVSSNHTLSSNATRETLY
# Sequence of G-protein coupled receptor 55 (Q9Y2T6 whole entry): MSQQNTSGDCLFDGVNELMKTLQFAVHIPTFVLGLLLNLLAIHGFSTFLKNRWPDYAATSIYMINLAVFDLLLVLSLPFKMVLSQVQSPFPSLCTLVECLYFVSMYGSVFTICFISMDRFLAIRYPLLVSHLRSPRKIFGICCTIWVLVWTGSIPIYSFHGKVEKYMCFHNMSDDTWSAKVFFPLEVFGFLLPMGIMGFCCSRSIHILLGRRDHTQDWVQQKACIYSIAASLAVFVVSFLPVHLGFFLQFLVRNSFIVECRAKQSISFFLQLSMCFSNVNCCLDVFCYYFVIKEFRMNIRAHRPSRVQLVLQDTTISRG
structure (smiles),measurement,setting,value
CCN(CC)S(=O)(=O)c1ccc(OC)c(NC(=O)C(C)Oc2ccc3c(C)cc(=O)oc3c2)c1 (configuration not stated),EC50,[1],16.4 µM (inactive)
O=C(/C=C/c1ccccc1F)c1cccc([N+](=O)[O-])c1,EC50,[2],15.1 µM (active)
COc1cc(C(=S)N2CCCCC2)ccc1O,IC50,[3],366 nM (active) and > 100 µM (inactive)
same,IC50,[4],3.34 µM (active)
same,IC50,[5],0.958 µM (active)
same,IC50,[6],5.11 µM (active)
same,IC50,[7],0.331 µM (active)
same,IC50,[8],> 66 µM (inactive)
same,IC50,[9],1.68 µM (active)
same,IC50,[10],84.6 nM (active) and 3.16 µM (active)
same,IC50,[11],> 66 µM (inactive)
same,IC50,[12],127 nM (active) and 5.55 µM (active)
same,IC50,[13],> 100 µM (inactive)
same,IC50,[14],> 158 µM (not active)
same,IC50,[15],1.2 µM (active)
Cc1cc(C)c(NC(=O)C[N+](C)(C)CC(O)COc2cccc3ccccc23)c(C)c1 (configuration not stated),IC50,[16],> 20 µM (inactive)
same,CC50,[17],15.6 µM (active)
